Experimental data taken from ChEMBL document CHEMBL1154961, “Structure-activity relationships of bacterial outer-membrane permeabilizers based on polymyxin B heptapeptides” (2010).
In brackets after ≈: the same amount, converted by molar mass.

Legend:
[1] = test system: Escherichia coli; assay: Antibacterial activity against Escherichia coli K-12 W3110 after 20 hrs by liquid microdilution method; format: functional; conditions: K-12 W3110, 20 h
[2] = test system: Staphylococcus aureus; assay: Antibacterial activity against Staphylococcus aureus 209P after 20 hrs by liquid microdilution method; format: functional
[3] = test system: Escherichia coli; assay: Induction of outer membrane permeability in Escherichia coli K-12 W3110 assessed as increase in novobiocin antibacterial activity after 20 hrs by liquid microdilution method; format: functional, organism-based
[4] = test system: Escherichia coli; assay: Induction of outer membrane permeability in Escherichia coli K-12 W3110 assessed as increase in erythromycin antibacterial activity after 20 hrs by liquid microdilution method; format: functional, organism-based

Row | SMILES | MIC [1] [µg/mL] | MIC [2] [µg/mL] | Activity [3] | Activity [4]
1 | CCCCCCCC(=O)N[C@@H](CCN)C(=O)N[C@@](C)(C(=O)N[C@@H](CCN)C(=O)N[C@H]1CCNC(=O)[C@H]([C@@H](C)O)NC(=O)[C@H](CCN)NC(=O)[C@H](CCN)NC(=O)[C@H](CC(C)C)NC(=O)[C@@H](Cc2ccccc2)NC(=O)[C@H](CCN)N1)[C@H](C)O | 0.5 (≈ 0.425 µM) | > 128 |  | 
2 | CO[C@@H]1[C@@H](OC(N)=O)[C@@H](O)[C@H](Oc2ccc3c(O)c(NC(=O)c4ccc(O)c(CC=C(C)C)c4)c(=O)oc3c2C)OC1(C)C [NOVOBIOCIN] | 128 (≈ 209 µM) |  |  | 
3 | CC(C)C[C@@H]1NC(=O)[C@@H](Cc2ccccc2)NC(=O)[C@H](CN)N(C(=O)O)CCNC(=O)[C@H]([C@@H](C)O)NC(=O)[C@H](CN)NC(=O)[C@H](CN)NC1=O | > 128 |  |  | 
4 | CC(C)C[C@@H]1NC(=O)[C@@H](Cc2ccccc2)NC(=O)[C@H](CN)N(C(=O)O)CCNC(=O)[C@H]([C@@H](C)O)NC(=O)[C@H](CCCN)NC(=O)[C@H](CN)NC1=O | > 128 |  |  | 
5 | CC[C@H]1OC(=O)[C@H](C)[C@@H](O[C@H]2C[C@@](C)(OC)[C@@H](O)[C@H](C)O2)[C@H](C)[C@@H](O[C@@H]2O[C@H](C)C[C@H](N(C)C)[C@H]2O)[C@](C)(O)C[C@@H](C)C(=O)[C@H](C)[C@@H](O)[C@]1(C)O [ERYTHROMYCIN] | 64 (≈ 87.2 µM) |  |  | 
6 | CC(C)C[C@@H]1NC(=O)[C@@H](Cc2ccccc2)NC(=O)[C@H](CCCN)N(C(=O)O)CCNC(=O)[C@H]([C@@H](C)O)NC(=O)[C@H](CCCN)NC(=O)[C@H](CCCN)NC1=O | > 128 |  |  | 
7 | CC(C)C[C@@H]1NC(=O)[C@@H](Cc2ccccc2)NC(=O)[C@H](CN)N(C(=O)O)CCNC(=O)[C@H]([C@@H](C)O)NC(=O)[C@H](CN)NC(=O)[C@H](CCCN)NC1=O | > 128 |  |  | 
8 | CCCCCCCC(=O)N[C@@H](CCN)C(=O)N[C@@H](C(=O)N[C@@H](CCN)C(=O)N[C@H]1CCNC(=O)[C@H]([C@H](C)O)NC(=O)[C@H](CCN)NC(=O)[C@H](CCN)NC(=O)[C@H](CC(C)C)NC(=O)[C@@H](Cc2ccccc2)NC(=O)[C@H](CN)C1=O)[C@H](C)O | 16 (≈ 13.8 µM) | > 128 |  | 
9 | CC(C)CCCCCCCC(=O)N[C@@H](C(=O)N[C@@H](CN)C(=O)NCC(=O)N1CCNC(=O)[C@H]([C@@H](C)O)NC(=O)[C@H](CCN)NC(=O)[C@H](CCN)NC(=O)[C@H](CC(C)C)NC(=O)[C@@H](Cc2ccccc2)NC(=O)[C@@H]1CCN)[C@@H](C)O | 0.5 (≈ 0.447 µM) | 64 (≈ 57.3 µM) |  | 
10 | CC(C)C[C@@H]1NC(=O)[C@@H](Cc2ccccc2)NC(=O)[C@H](CCN)N(C(=O)O)CCNC(=O)[C@H]([C@@H](C)O)NC(=O)[C@H](CCN)NC(=O)[C@H](CCN)NC1=O | > 128 |  | Dose-dependent effect | Dose-dependent effect
